Laboratory results published in PubChem BioAssay AID488890 (Southern Research Specialized Biocontainment Screening …, 2010).
Results filed as inconclusive are left out. Active and inactive are the calls of the source. How the calls were made is not given here.

System: Mycobacterium tuberculosis non-replicating, growth inhibition
Experiment: growth inhibition of non-replicating M. tuberculosis (AID 488890)

Structure (SMILES) | IC50
O=C(CCN1CCC(c2cccs2)=N1)c1cccs1 | 4.15 µM
CC(=O)c1cc2c(ccc3ccccc32)oc1=O | 15.4 µM (inactive)
O=C(COC(=O)c1cc(Br)ccc1Cl)NC1CCCC1 | 4.84 µM
COc1ccc(NC(=O)c2ccc(-c3ccc([N+](=O)[O-])cc3)o2)cc1OC | 3.93 µM
COc1ccc(C(=O)N/N=C/c2cccc3cccnc23)cc1 | 6.88 µM
CCc1ccc(NC(=O)COc2ccc3c(c2)OCO3)cc1 | 5.33 µM
CCCn1nnnc1NC(=O)c1cc(Cl)ccc1Cl | 6.8 µM
O=C(Nc1nnc(-c2ccco2)o1)c1ccc(Cl)s1 | 11.2 µM (inactive)
O=C(N/N=C/c1ccc[nH]1)c1ccncc1 | 2.22 µM
O=C(CC1CC2CCC1C2)NCc1cccs1 (centres undefined) | 1.69 µM
O=C(NNc1nc2ccccc2s1)Nc1ccc(F)cc1 | 14.4 µM (inactive)
CC(/C=C/c1ccco1)=N/NC(=O)c1ccc(C)nc1 | 13.4 µM (inactive)
CCCCNC(=O)N1CCc2ccccc2C1 | 5.03 µM
CSC1=NSC2=NC(=O)/C(=C\c3cccs3)C(=N)N12 | 4.51 µM
O=C(COC(=O)c1ccccc1Br)Nc1ccccc1F | 14.7 µM (inactive)
CN(C)CCN1C(=O)c2oc3ccccc3c(=O)c2C1c1cccc(Br)c1 (centres undefined) | 23.1 µM (inactive)
Cc1ccccc1-n1c(C)cc(/C=N/NC(=O)c2ccncc2)c1C | 0.65 µM
COC(=O)COc1ccc2c(=O)c(-c3ccccc3)coc2c1 | < 0.1 µM
O=S(=O)(c1ccc(OCC2CO2)cc1)c1ccc(OCC2CO2)cc1 (centres undefined) | 19.7 µM (inactive)
C/C(=N/NC(=O)c1ccco1)c1ccc(Br)s1 | 23 µM (inactive)

Structure (SMILES) | IC50
c1ccc(Nc2nc(Nc3ccccc3)nc(N3CCNCC3)n2)cc1 | 12 µM (inactive)
COC(=O)COc1ccc(-c2nn(C)c(=O)c3ccccc23)cc1 | 4.25 µM
CCC(C)NCCOc1ccc(C(C)(C)c2ccccc2)cc1 (centres undefined) | 10.4 µM (inactive)
c1ccc(-c2nnc(SCc3nnc(-c4cccs4)o3)o2)cc1 | 5.95 µM
C/C(=N\NC(=O)c1cccs1)c1ccc2c(c1)OCO2 | 8.78 µM
CCc1ccc(OCCNc2cc(N3CCNC(C)C3)ccc2[N+](=O)[O-])cc1 (centres undefined) | 2.89 µM
COc1cccc2cc(C(=O)NCc3ccc(F)cc3)c(=N)oc12 | 8.67 µM
O=C(COc1ccccc1)Nc1ccc(Cl)cn1 | 7.51 µM
O=C(Nc1nc2ccccc2[nH]1)c1cccc([N+](=O)[O-])c1 | 33.2 µM (inactive)
CCCOC(=O)c1ccc(NC(=O)c2ccc(Br)o2)cc1 | 2.96 µM
C/C(=N\Nc1nc2ccccc2[nH]1)c1cc2ccccc2o1 | 8.88 µM
CSC1=N/C(=C\c2ccc(Br)o2)C(=O)S1 | 28.7 µM (inactive)
CCOC(=O)Nc1ccc2c(c1)N(C(=O)CCCl)c1ccccc1[S@]2=O | 3.68 µM
Nc1ccccc1C#CC(=O)c1ccccc1 | < 0.1 µM
Cc1ccc(SCCC(=O)OCC(=O)NCC2CCCCC2)cc1 | 16.6 µM (inactive)
Cc1ccccc1NC(=O)C1COc2ccccc2O1 (centres undefined) | 9.25 µM
CCN(CC)c1ccc(-c2sc(Nc3ccccc3)n[n+]2-c2ccc(F)cc2)cc1 | 9.04 µM
Cc1ccccc1-n1nnc2c(=O)oc3ccccc3c21 | 0.44 µM
CC(=O)c1ccc(Sc2nnnn2-c2ccccc2)c([N+](=O)[O-])c1 | 19.4 µM (inactive)
COc1ccccc1NC(=O)C(=O)/C=C(\O)c1ccccc1 | 15.4 µM (inactive)

Structure (SMILES) | IC50
O=C(NNC(=O)c1ncc(Cl)c(Cl)c1Cl)c1ccc(F)cc1 | 15.1 µM (inactive)
CC(NC(=O)OCc1ccccc1)c1ccccc1 (centres undefined) | 0.82 µM
c1ccc(-c2nc3c(ccc4ccccc43)[nH]2)nc1 | 17.8 µM (inactive)
COc1cc(/C=N/NC(=O)c2ccccn2)ccc1OC(=O)c1cccs1 | 2.85 µM
O=C(Oc1c(-c2ccco2)oc2ccccc2c1=O)c1cccnc1 | 11.5 µM (inactive)
Nc1ccc(Br)c2cccnc12 | 15.8 µM (inactive)
COc1cccc(OC(=O)c2cc3ccccc3oc2=O)c1 | 14.2 µM (inactive)
C/C(=N\NC(=O)c1ccc(Cl)cc1)c1ccccn1 | 0.89 µM
O=C(OCCCOC(=O)c1ccc([N+](=O)[O-])o1)c1ccc([N+](=O)[O-])o1 | 1.22 µM
CC(=O)Nc1ccc(OC(=O)c2ccc(Br)c([N+](=O)[O-])c2)cc1 | 8.96 µM
C/C(=N/NC(=O)c1ccncc1)C1=C(O)CC(C)(C)CC1=O | 13 µM (inactive)
N#CC1=C(c2ccccc2)/C(=C/c2ccccc2)OC1=O | 2.82 µM
CC(OC(=O)c1ccc2c(=O)n3c(nc2c1)CCCCC3)C(=O)Nc1ccc(Cl)cn1 (centres undefined) | 3.69 µM
O=C(COC(=O)COc1ccc(Nc2ccccc2)cc1)NCc1ccco1 | 10.3 µM (inactive)
O=C(COC(=O)CCC(=O)c1ccc(F)cc1)Nc1ccccc1 | 11.1 µM (inactive)
Cc1ccc(NC(=O)c2ccc([N+](=O)[O-])o2)cc1S(=O)(=O)N1CCOCC1 | 13.9 µM (inactive)
COc1ccccc1CCNC(=O)c1ccc(C)o1 | 2.96 µM
C/C(=C\C(=O)c1ccc(Br)cc1)NNC(=O)c1ccccc1 | 0.38 µM
N=C1/C(=C\c2coc3ccccc3c2=O)C(=O)N=C2SC=CN12 | 21.4 µM (inactive)
